Reference: patent publication US11358952B2, “Substituted 4-aminoisoindoline-1,3-dione compounds, compositions thereof, and methods of treatment therewith” (Celgene Corporation, priority 2018, dated 2022)
pIC50: −log10 of the molar value.

tested on: SU-DHL-4 cell line; experiment: SU-DHL-4 cell proliferation assay (Cell Titer-Glo viability); format: cell-based; details: Homo sapiens; cell viability IC50 activity level, DLBCL cell line SU-DHL-4, 120 hours post-treatment; read-out: SU-DHL-4 Act
Description: SU-DHL-4 Cell Proliferation Assay.
The following is an example of an assay that can be used to determine the anti-proliferative activity of Isoindolinedione Compounds in a DLBCL cell line, for example, the SU-DHL-4 cell line (Deutsche Sammlung von Mikroorganismen and Zellkulturen GmbH [DSMZ]: catalogue number ACC-495) at 120 hours post-treatment. The seeding density for SU-DHL-4 can be optimized to ensure assay linearity in 1536-well plates.
Increasing concentrations of test compounds (0.5 nM to 10 μM) were spotted in a 20-point dilution fashion (unevenly spaced data points) via an acoustic dispenser (EDC ATS-100) into an empty 1536-well plate. The DMSO concentration was kept constant for a final assay concentration of 0.1% DMSO. Prior to testing, SU-DHL-4 cells were grown in RPMI-1640 (Roswell Park Memorial Institute—1640) medium with 10% FBS (fetal bovine serum: HyClone) and expanded in culture flasks to provide sufficient amounts of starting material. Cells were then diluted to 500 cells per well in a 5 μL volume, and added directly to the compound-spotted 1536-well plates. Cells were allowed to grow for 120 hours in 5% CO2 at 37° C. At the time when exposure of cells to compound began (to), initial viable cell number was assessed via Cell Titer-Glo® Luminescent Cell Viability Assay at a 1 vol:2 vol ratio according to manufacturer's instructions (Promega Corporation, Madison, Wis.) by quantifying the level of luminescence generated by adenosine-5′-triphosphate (ATP) present in viable cells. After 120 hours, cell viability of the treated cells was assessed via Cell Titer-Gb® and read for luminescence. All growth inhibition curves were processed and evaluated using Activity Base (IDBS, Alameda, Calif.). Cell viability IC50 values were calculated using a four parameter logistic model (sigmoidal dose-response model): y=(A+((B−A)/(1+((C/x)^D)))) wherein: A=YMin B=YMax C=EC50 D=Hill slope IC50=the concentration of the compound when Y=50% of DMSO control Y=cell viability measured as luminescence unit, and x=concentration of compound.

First: COc1cc(N2CCN(Cc3ccc(CNc4cccc5c4C(=O)N(C4CCC(=O)NC4=O)C5=O)cc3)CC2)ncn1 (centres unmarked) [Cpd 136, 2-(2,6-dioxopiperidin-3-yl)-4-(4-((4-(6-methoxypyrimidin-4-yl)piperazin-1-yl)methyl)benzylamino)isoindoline-1,3-dione]
Second: O=C1CCC(N2C(=O)c3cccc(NCc4ccc(CN5CCN(c6cnccn6)CC5)cc4)c3C2=O)C(=O)N1 (centres unmarked) [Cpd 185, 2-(2,6-dioxopiperidin-3-yl)-4-(4-((4-(pyrazin-2-yl)piperazin-1-yl)methyl)benzylamino)isoindoline-1,3-dione]
The pIC50 of the first is lower: 6.00 to 6.12 for the first, 6.30 to 6.70 for the second. The second is the more potent here.

First: CC(C)(C)OC1CCN(Cc2ccc(CNc3cccc4c3C(=O)N(C3CCC(=O)NC3=O)C4=O)c(F)c2)CC1 (centres unmarked) [Cpd 143, 4-(4-((4-tert-butyoxypiperidin-1-yl)methyl)-2-fluorobenzylamino)-2-(2,6-dioxopiperidin-3-yl)isoindoline-1,3-dione]
Second: Cc1cc(CN2CCC(C(C)C)CC2)ccc1CNc1cccc2c1C(=O)N(C1CCC(=O)NC1=O)C2=O (centres unmarked) [Cpd 100, 2-(2,6-dioxopiperidin-3-yl)-4-(4-((4-isopropylpiperidin-1-yl)methyl)-2-methylbenzylamino)isoindoline-1,3-dione]
The pIC50 of the first is higher: over 6.70 for the first, 6.30 to 6.70 for the second.

`NC(=O)c1ccc(N2CCN(Cc3ccc(CNc4cccc5c4C(=O)N([C@H]4CCC(=O)NC4=O)C5=O)cc3)CC2)cn1` [Cpd 58, (S)-5-(4-(4-((2-(2,6-dioxopiperidin-3-yl)-1,3-dioxoisoindolin-4-ylamino)methyl)benzyl)piperazin-1-yl)picolinamide] and `CC1(C)CN(c2ccc(C(N)=O)nc2)CCN1Cc1ccc(CNc2cccc3c2C(=O)N(C2CCC(=O)NC2=O)C3=O)cc1` (centres unmarked) [Cpd 86, 5-(4-(4-((2-(2,6-dioxopiperidin-3-yl)-1,3-dioxoisoindolin-4-ylamino)methyl)benzyl)-3,3-dimethylpiperazin-1-yl)picolinamide] cannot be ordered by pIC50: over 6.70 for the first, over 6.70 for the second.

Compared with `O=C1CCC(N2C(=O)c3cccc(NCc4ccc(CN5CC6(CCCO6)C5)cc4F)c3C2=O)C(=O)N1` (centres unmarked) [Cpd 230, 4-(4-(5-oxa-2-azaspiro[3.4]octan-2-ylmethyl)-2-fluorobenzylamino)-2-(2,6-dioxopiperidin-3-yl)isoindoline-1,3-dione], `O=C1CCC(N2C(=O)c3cccc(NCc4ccc(CN5CC6(CC6)C5)cc4F)c3C2=O)C(=O)N1` (centres unmarked) [Cpd 135, 4-(4-(5-azaspiro[2.3]hexan-5-ylmethyl)-2-fluorobenzylamino)-2-(2,6-dioxopiperidin-3-yl)isoindoline-1,3-dione] is lower in pIC50: over 6.70 for the first, 6.30 to 6.70 for the second. The first is the more potent here.

First: O=C1CCC(N2C(=O)c3cccc(NCc4ccc(CN5CCN(c6ccc(F)cc6)CC5)cc4)c3C2=O)C(=O)N1 (centres unmarked) [Cpd 2, 2-(2,6-dioxopiperidin-3-yl)-4-(4-((4-(4-fluorophenyl)piperazin-1-yl)methyl)benzylamino)isoindoline-1,3-dione]
Second: N#Cc1ccc(N2CCN(Cc3ccc(CNc4cccc5c4C(=O)N(C4CCC(=O)NC4=O)C5=O)cc3)CC2)c(F)c1 (centres unmarked) [Cpd 28, 4-(4-(4-((2-(2,6-dioxopiperidin-3-yl)-1,3-dioxoisoindolin-4-ylamino)methyl)benzyl)piperazin-1-yl)-3-fluorobenzonitrile]
The pIC50 of the first is lower: 6.12 to 6.30 for the first, over 6.70 for the second.

First: O=C1CCC(N2C(=O)c3cccc(NCc4ccc(CN5CC(c6ccccn6)C5)cc4F)c3C2=O)C(=O)N1 (centres unmarked) [Cpd 165, 2-(2,6-dioxopiperidin-3-yl)-4-(2-fluoro-4-((3-(pyridin-2-yl)azetidin-1-yl)methyl)benzylamino)isoindoline-1,3-dione]
Second: O=C1CCC(N2C(=O)c3cccc(NCc4ccc(CN5CCC(Oc6ccccn6)CC5)cc4)c3C2=O)C(=O)N1 (centres unmarked) [Cpd 132, 2-(2,6-dioxopiperidin-3-yl)-4-(4-((4-(pyridin-2-yloxy)piperidin-1-yl)methyl)benzylamino)isoindoline-1,3-dione]
The pIC50 of the first is higher: over 6.70 for the first, 6.00 to 6.12 for the second.

`O=C1CCC(N2C(=O)c3cccc(NCc4ccc(CN5CCC6(CC5)CC6)cc4)c3C2=O)C(=O)N1` (centres unmarked) [Cpd 21, 4-(4-(6-azaspiro[2.5]octan-6-ylmethyl)benzylamino)-2-(2,6-dioxopiperidin-3-yl)isoindoline-1,3-dione] and `CCC1(O)CCN(Cc2ccc(CNc3cccc4c3C(=O)N(C3CCC(=O)NC3=O)C4=O)cc2)CC1` (centres unmarked) [Cpd 88, 2-(2,6-dioxopiperidin-3-yl)-4-(4-((4-ethyl-4-hydroxypiperidin-1-yl)methyl)benzylamino)isoindoline-1,3-dione] fall in the same range of pIC50: 6.12 to 6.30 for the first, 6.12 to 6.30 for the second.

First: CCc1nsc(N2CCN(Cc3ccc(CNc4cccc5c4C(=O)N(C4CCC(=O)NC4=O)C5=O)cc3)CC2)n1 (centres unmarked) [Cpd 197, 2-(2,6-dioxopiperidin-3-yl)-4-(4-((4-(3-ethyl-1,2,4-thiadiazol-5-yl)piperazin-1-yl)methyl)benzylamino)isoindoline-1,3-dione]
Second: CC(C)OC1CCN(Cc2ccc(CNc3cccc4c3C(=O)N(C3CCC(=O)NC3=O)C4=O)cc2)CC1 (centres unmarked) [Cpd 24, 2-(2,6-dioxopiperidin-3-yl)-4-(4-((4-isopropoxypiperidin-1-yl)methyl)benzylamino)isoindoline-1,3-dione]
The pIC50 of the first is higher: over 6.70 for the first, 6.30 to 6.70 for the second. The first is the more potent here.

First: CCS(=O)(=O)N1CCN(Cc2ccc(CNc3cccc4c3C(=O)N(C3CCC(=O)NC3=O)C4=O)c(F)c2)CC1 (centres unmarked) [Cpd 160, 2-(2,6-dioxopiperidin-3-yl)-4-(4-((4-(ethylsulfonyl)piperazin-1-yl)methyl)-2-fluorobenzylamino)isoindoline-1,3-dione]
Second: Cc1cc(CN2CCN(c3ccc(F)cc3F)CC2)ccc1CNc1cccc2c1C(=O)N(C1CCC(=O)NC1=O)C2=O (centres unmarked) [Cpd 101, 4-(4-((4-(2,4-difluorophenyl)piperazin-1-yl)methyl)-2-methylbenzylamino)-2-(2,6-dioxopiperidin-3-yl)isoindoline-1,3-dione]
The pIC50 of the first is higher: over 6.70 for the first, 6.30 to 6.70 for the second.

`CC(C)(C)C1CN(Cc2ccc(CNc3cccc4c3C(=O)N(C3CCC(=O)NC3=O)C4=O)cc2)C1` (centres unmarked) [Cpd 114, 4-(4-((3-tert-butylazetidin-1-yl)methyl)benzylamino)-2-(2,6-dioxopiperidin-3-yl)isoindoline-1,3-dione] and `CC1(C)CN(c2ccc(C#N)cn2)CCN1Cc1ccc(CNc2cccc3c2C(=O)N(C2CCC(=O)NC2=O)C3=O)cc1` (centres unmarked) [Cpd 84, 6-(4-(4-((2-(2,6-dioxopiperidin-3-yl)-1,3-dioxoisoindolin-4-ylamino)methyl)benzyl)-3,3-dimethylpiperazin-1-yl)nicotinonitrile] cannot be ordered by pIC50: over 6.70 for the first, over 6.70 for the second.

Compared with `Cc1cc(CNc2cccc3c2C(=O)N(C2CCC(=O)NC2=O)C3=O)ccc1CN1CCC(C(F)F)CC1` (centres unmarked) [Cpd 48, 4-(4-((4-(difluoromethyl)piperidin-1-yl)methyl)-3-methylbenzylamino)-2-(2,6-dioxopiperidin-3-yl)isoindoline-1,3-dione], `Cc1cc(CNc2cccc3c2C(=O)N(C2CCC(=O)NC2=O)C3=O)ccc1CN1CCC(n2cccn2)CC1` (centres unmarked) [Cpd 56, 4-(4-((4-(1H-pyrazol-1-yl)piperidin-1-yl)methyl)-3-methylbenzylamino)-2-(2,6-dioxopiperidin-3-yl)isoindoline-1,3-dione] is higher in pIC50: 6.30 to 6.70 for the first, over 6.70 for the second.

`Cc1cc(CNc2cccc3c2C(=O)N(C2CCC(=O)NC2=O)C3=O)ccc1CN1CCC(N2CCOCC2)CC1` (centres unmarked) [Cpd 211, 2-(2,6-dioxopiperidin-3-yl)-4-(3-methyl-4-((4-morpholinopiperidin-1-yl)methyl)benzylamino)isoindoline-1,3-dione] gave a pIC50 of 6.30 to 6.70.
